Source: article PMC9669016, “First-in-human phase Ia study of the PI3Kα inhibitor CYH33 in patients with solid tumors” (Nature Communications, 2022)

Assay: Clinical pharmacokinetics: plasma CYH33 and I27 by LC/MS/MS
Format: in vivo, human
Protocol: The PK characteristics of CYH33 and its active metabolite I27 were evaluated after single and multiple dose administrations. PK data were obtained from 37 patients from 7 dose cohorts: 1 mg (n = 1), 5 mg (n = 1), 10 mg (n = 2), 20 mg (n = 6), 30 mg (n = 12), 40 mg (n = 13), and 60 mg (n = 2). Intensive and sparse PK sampling was performed. Prior to initiating a continuous daily treatment cycle, the first 5 patients participated in a single dose PK treatment period with a 7-day washout in order to determine the terminal-phase half-life (t1/2) of CYH33 and its active metabolite I27. Based on the single dose PK data for CYH33 of the first 5 patients at doses of 1, 5, 10 and 20 mg, the PK and metabolic characteristics of CYH33 and I27 were evaluated. Combined with the pre-specified rules in the protocol and deliberation from the SMC, subsequent patients directly entered the continuous dose phase.
Blood samples for PK evaluation were collected at: (1) during the single dose phase: on day 1 pre-dose and 0.5, 1, 2, 4, 8, 12, 24, 36, 48, and 72 h post-dose; (2) during the continuous dose phase: C1D1/Cycle 1 Day 28 pre-dose, and 0.5, 1, 2, 3, 4, 6, 8, 12, and 24 h post-dose; and C1D8/Day 15 pre-dose. Plasma concentrations of CYH33 and I27 were analyzed using a liquid chromatography-tandem mass spectrometry (LC/MS/MS) assay (Shimadzu Corporation, LC-30AD) with a lower limit of quantification (LLOQ) of 2.585 ng/mL and 1.0 ng/mL for CYH33 and I27, respectively. […] Blood samples for measuring the FBG level were collected within 30 min before dosing on C1D1, C1D15, and on the first day of subsequent treatment cycles.

[1] = CYH33, Cycle 1 Day 1, 5 mg (n = 1)
[2] = CYH33, Cycle 1 Day 1, 10 mg (n = 2)
[3] = CYH33, Cycle 1 Day 1, 20 mg (n = 5)

In the case of COC(=O)Nc1cc(C(F)(F)F)c(-c2nc(N3CCOCC3)c3cc(CN4CCN(S(C)(=O)=O)CC4)cn3n2)cn1 [CYH33, methyl (5-(6-((4-(methylsulfonyl)piperazin-1-yl)methyl)−4-morpholinopyrrolo[2,1-f][1,2,4]triazin-2-yl)−4-(trifluoromethyl)pyridin-2-yl)carbamate], the CYH33 plasma concentration, mean (C1D1, 1 mg, 1 h) is reported as 4.6 ng/mL, the CYH33 plasma concentration, mean (C1D1, 1 mg, 2 h) is reported as 3.8 ng/mL and the CYH33 plasma concentration, mean (C1D1, 1 mg, 4 h) is reported as 2.9 ng/mL. For the same compound, the CYH33 plasma concentration, mean (C1D1, 1 mg, 8 h) was 1.8 ng/mL, the CYH33 plasma concentration, mean (C1D1, 1 mg, 12 h) was 0 ng/mL and the CYH33 plasma concentration, mean (C1D1, 1 mg, 36 h) was 0 ng/mL. It also gave a CYH33 plasma concentration, mean (C1D1, 1 mg, 48 h) of 0 ng/mL, a CYH33 plasma concentration, mean (C1D1, 1 mg, 72 h) of 0 ng/mL and a CYH33 plasma concentration, mean (C1D1, 5 mg, 1 h) of 18.1 ng/mL. It also gave a CYH33 plasma concentration, mean (C1D1, 5 mg, 2 h) of 24.6 ng/mL, a CYH33 plasma concentration, mean (C1D1, 5 mg, 4 h) of 19.5 ng/mL and a CYH33 plasma concentration, mean (C1D1, 5 mg, 8 h) of 11.8 ng/mL. For the same compound, the CYH33 plasma concentration, mean (C1D1, 5 mg, 12 h) was 9.7 ng/mL, the CYH33 plasma concentration, mean (C1D1, 5 mg, 36 h) was 3.8 ng/mL and the CYH33 plasma concentration, mean (C1D1, 5 mg, 48 h) was 2.5 ng/mL. For the same compound, the CYH33 plasma concentration, mean (C1D1, 10 mg, 1 h) was 30.2 ng/mL, the CYH33 plasma concentration, mean (C1D1, 10 mg, 2 h) was 35.3 ng/mL and the CYH33 plasma concentration, mean (C1D1, 10 mg, 8 h) was 30.2 ng/mL. For the same compound, the CYH33 plasma concentration, mean (C1D1, 10 mg, 12 h) was 23.9 ng/mL, the CYH33 plasma concentration, mean (C1D1, 10 mg, 36 h) was 9.3 ng/mL and the CYH33 plasma concentration, mean (C1D1, 10 mg, 48 h) was 6.8 ng/mL. For the same compound, the “CYH33 plasma concentration, mean” value (C1D1, 20 mg, 0.5 h, in ng/mL) was 26.7325, the “CYH33 plasma concentration, mean” value (C1D1, 20 mg, 1 h, in ng/mL) was 44.192 and the “CYH33 plasma concentration, mean” value (C1D1, 20 mg, 2 h, in ng/mL) was 54.18. The “CYH33 plasma concentration, mean” value (C1D1, 20 mg, 3 h, in ng/mL) was 46.425, the “CYH33 plasma concentration, mean” value (C1D1, 20 mg, 6 h, in ng/mL) was 32.9075 and the “CYH33 plasma concentration, mean” value (C1D1, 20 mg, 8 h, in ng/mL) was 36.04. The CYH33 plasma concentration, mean (C1D1, 20 mg, 36 h) was 23.6 ng/mL, the CYH33 plasma concentration, mean (C1D1, 20 mg, 48 h) was 15.8 ng/mL and the “CYH33 plasma concentration, mean” value (C1D1, 30 mg, 0.5 h, in ng/mL) was 24.6458. For the same compound, the “CYH33 plasma concentration, mean” value (C1D1, 30 mg, 1 h, in ng/mL) was 57.5417, the “CYH33 plasma concentration, mean” value (C1D1, 30 mg, 2 h, in ng/mL) was 79.1167 and the “CYH33 plasma concentration, mean” value (C1D1, 30 mg, 3 h, in ng/mL) was 79.1917. The “CYH33 plasma concentration, mean” value (C1D1, 30 mg, 6 h, in ng/mL) was 64.9583, the “CYH33 plasma concentration, mean” value (C1D1, 30 mg, 8 h, in ng/mL) was 60.1583 and the “CYH33 plasma concentration, mean” value (C1D1, 30 mg, 24 h, in ng/mL) was 43.65. The CYH33 plasma concentration, mean (C1D1, 30 mg, 48 h) was 42.5 ng/mL, the “CYH33 plasma concentration, mean” value (C1D1, 40 mg, 1 h, in ng/mL) was 78.4333 and the CYH33 plasma concentration, mean (C1D1, 40 mg, 2 h) was 87 ng/mL. The CYH33 plasma concentration, mean (C1D1, 40 mg, 3 h) was 88.2 ng/mL, the “CYH33 plasma concentration, mean” value (C1D1, 40 mg, 4 h, in ng/mL) was 78.0667 and the “CYH33 plasma concentration, mean” value (C1D1, 40 mg, 6 h, in ng/mL) was 62.5333. The “CYH33 plasma concentration, mean” value (C1D1, 40 mg, 8 h, in ng/mL) was 57.6333, the “CYH33 plasma concentration, mean” value (C1D1, 40 mg, 12 h, in ng/mL) was 47.8667 and the CYH33 plasma concentration, mean (C1D1, 40 mg, 48 h) was 45.2 ng/mL. The CYH33 plasma concentration, mean (C1D1, 60 mg, 1 h) was 55.6 ng/mL, the “CYH33 plasma concentration, mean” value (C1D1, 60 mg, 2 h, in ng/mL) was 86.475 and the “CYH33 plasma concentration, mean” value (C1D1, 60 mg, 3 h, in ng/mL) was 95.325. For the same compound, the “CYH33 plasma concentration, mean” value (C1D1, 60 mg, 4 h, in ng/mL) was 109.05, the “CYH33 plasma concentration, mean” value (C1D1, 60 mg, 6 h, in ng/mL) was 98.025 and the CYH33 plasma concentration, mean (C1D1, 60 mg, 8 h) was 96.2 ng/mL. The “CYH33 plasma concentration, mean” value (C1D1, 60 mg, 12 h, in ng/mL) was 78.575, the CYH33 plasma concentration, mean (C1D1, 60 mg, 48 h) was 61.4 ng/mL and the CYH33 plasma concentration, mean (C1D28, 1 mg, 0.5 h) was 2.38 ng/mL. It also gave a CYH33 plasma concentration, mean (C1D28, 1 mg, 1 h) of 4.57 ng/mL, a CYH33 plasma concentration, mean (C1D28, 1 mg, 2 h) of 4.43 ng/mL and a CYH33 plasma concentration, mean (C1D28, 1 mg, 8 h) of 2.84 ng/mL. It also gave a CYH33 plasma concentration, mean (C1D28, 1 mg, 12 h) of 1.9 ng/mL, a CYH33 plasma concentration, mean (C1D28, 1 mg, 24 h) of 0 ng/mL and a CYH33 plasma concentration, mean (C1D28, 5 mg, 0.5 h) of 48.6 ng/mL. It also gave a CYH33 plasma concentration, mean (C1D28, 5 mg, 1 h) of 56.2 ng/mL, a CYH33 plasma concentration, mean (C1D28, 5 mg, 2 h) of 43 ng/mL and a CYH33 plasma concentration, mean (C1D28, 5 mg, 8 h) of 23.5 ng/mL. For the same compound, the CYH33 plasma concentration, mean (C1D28, 5 mg, 12 h) was 20 ng/mL, the CYH33 plasma concentration, mean (C1D28, 5 mg, 24 h) was 15.1 ng/mL and the CYH33 plasma concentration, mean (C1D28, 10 mg, 0.5 h) was 49.9 ng/mL. For the same compound, the CYH33 plasma concentration, mean (C1D28, 10 mg, 1 h) was 61.4 ng/mL, the CYH33 plasma concentration, mean (C1D28, 10 mg, 2 h) was 77.5 ng/mL and the CYH33 plasma concentration, mean (C1D28, 10 mg, 8 h) was 55.7 ng/mL. For the same compound, the CYH33 plasma concentration, mean (C1D28, 10 mg, 12 h) was 47.9 ng/mL, the CYH33 plasma concentration, mean (C1D28, 10 mg, 24 h) was 35.4 ng/mL and the “CYH33 plasma concentration, mean” value (C1D28, 20 mg, 0.5 h, in ng/mL) was 110.84. The CYH33 plasma concentration, mean (C1D28, 20 mg, 1 h) was 134 ng/mL, the “CYH33 plasma concentration, mean” value (C1D28, 20 mg, 2 h, in ng/mL) was 135.8 and the “CYH33 plasma concentration, mean” value (C1D28, 20 mg, 6 h, in ng/mL) was 117.175. The “CYH33 plasma concentration, mean” value (C1D28, 20 mg, 8 h, in ng/mL) was 120.72, the “CYH33 plasma concentration, mean” value (C1D28, 20 mg, 12 h, in ng/mL) was 106.84 and the “CYH33 plasma concentration, mean” value (C1D28, 20 mg, 24 h, in ng/mL) was 83.68. For the same compound, the “CYH33 plasma concentration, mean” value (C1D28, 30 mg, 0.5 h, in ng/mL) was 149.367, the “CYH33 plasma concentration, mean” value (C1D28, 30 mg, 1 h, in ng/mL) was 154.011 and the “CYH33 plasma concentration, mean” value (C1D28, 30 mg, 2 h, in ng/mL) was 172.178. For the same compound, the “CYH33 plasma concentration, mean” value (C1D28, 30 mg, 6 h, in ng/mL) was 163.956, the “CYH33 plasma concentration, mean” value (C1D28, 30 mg, 8 h, in ng/mL) was 162.122 and the “CYH33 plasma concentration, mean” value (C1D28, 30 mg, 12 h, in ng/mL) was 143.189. For the same compound, the “CYH33 plasma concentration, mean” value (C1D28, 40 mg, 0.5 h, in ng/mL) was 167.057, the “CYH33 plasma concentration, mean” value (C1D28, 40 mg, 1 h, in ng/mL) was 191.129 and the “CYH33 plasma concentration, mean” value (C1D28, 40 mg, 2 h, in ng/mL) was 206.714. For the same compound, the “CYH33 plasma concentration, mean” value (C1D28, 40 mg, 3 h, in ng/mL) was 262.333, the “CYH33 plasma concentration, mean” value (C1D28, 40 mg, 6 h, in ng/mL) was 245.333 and the “CYH33 plasma concentration, mean” value (C1D28, 40 mg, 8 h, in ng/mL) was 166.029. For the same compound, the “CYH33 plasma concentration, mean” value (C1D28, 40 mg, 12 h, in ng/mL) was 158.629, the “CYH33 plasma concentration, mean” value (C1D28, 40 mg, 24 h, in ng/mL) was 134.657 and the CYH33 plasma concentration, mean (C1D28, 60 mg, 0.5 h) was 155 ng/mL. It also gave a CYH33 plasma concentration, mean (C1D28, 60 mg, 1 h) of 184 ng/mL, a CYH33 plasma concentration, mean (C1D28, 60 mg, 2 h) of 198 ng/mL and a CYH33 plasma concentration, mean (C1D28, 60 mg, 3 h) of 193 ng/mL. The CYH33 plasma concentration, mean (C1D28, 60 mg, 6 h) was 205 ng/mL, the CYH33 plasma concentration, mean (C1D28, 60 mg, 8 h) was 181 ng/mL and the CYH33 plasma concentration, mean (C1D28, 60 mg, 12 h) was 163 ng/mL. For the same compound, the CYH33 plasma concentration, mean (C1D28, 60 mg, 24 h) was 135 ng/mL, the “CL/F, mean (CV%)” value [1] was 11.6 L/h and the “V/F, mean (CV%)” value [1] was 322.8 L. For the same compound, the “CL/F, mean (CV%)” value [2] was 9.2 (11) L/h, the “V/F, mean (CV%)” value [2] was 263.2 (24) L and the “CL/F, mean (CV%)” value [3] was 9.1 L/h. For the same compound, the “V/F, mean (CV%)” value [3] was 274.2 L and the “CLss/F, mean” value (CYH33, Cycle 1 Day 28, 1 mg (n=1)) was 19.4 L/h.
